In brackets after ≈: the same amount, converted by molar mass.
Legend:
Escherichia coli = system: Escherichia coli; parameters: method as in ref 36 = [36]; 36. Koay Y.C. Wong K.C. Hasnah O. Ibrahim E.M.S. Mohammad Z.A. Chemical constituents and biological activities of Strobilanthes crispus L. Rec. Nat. Prod. 2013 7 59 64; conditions: cited from earlier work
Klebsiella pneumoniae = system: Klebsiella pneumoniae; parameters: method as in ref 36 = [36]; 36. Koay Y.C. Wong K.C. Hasnah O. Ibrahim E.M.S. Mohammad Z.A. Chemical constituents and biological activities of Strobilanthes crispus L. Rec. Nat. Prod. 2013 7 59 64; conditions: cited from earlier work
[1] = system: Staphylococcus aureus, Bacillus thuringiensis, Escherichia coli, Enterobacter cloacae, and Klebsiella pneumoniae; parameters: method as in PMID 12120818; conditions: 1 mg of compound; cited from earlier work
Staphylococcus aureus = system: Staphylococcus aureus; parameters: method as in ref 36 = [36]; 36. Koay Y.C. Wong K.C. Hasnah O. Ibrahim E.M.S. Mohammad Z.A. Chemical constituents and biological activities of Strobilanthes crispus L. Rec. Nat. Prod. 2013 7 59 64; conditions: cited from earlier work
[2] = system: one fungal and five bacterial strains; assay: Serial dilution microplate MIC, whole panel; type: cell-based; conditions: isolated compounds, all tested strains; highest concentration 250 µg/mL; read-out: MIC against all tested microorganisms
Method: The MIC value of the plant extracts and isolated compounds against one fungal and five bacterial strains (Salmonella Typhimurium ATCC 39183, Escherichia coli ATCC 25922, Pseudomonas aeruginosa ATCC 27853, Staphylococcus aureus ATCC 29213, Enterococcus faecalis ATCC 29212, and fungi culture, Candida albicans ATCC 10231) was assessed in triplicate using the serial dilution microplate method; acetone and DMSO were used as solvents. Bacterial cultures were grown in Mueller Hinton broth (Sigma Aldrich, St. Louis, MO, USA) overnight and adjusted to McFarland standard 1 (1 × 10^8 CFU/mL). Then, 100 µL of samples were transferred into the first well of a sterile 96-well microtiter plate, which contained 100 µL of water and a 1:1 serial dilution with sterilized distilled water was carried out. In each well, 100 µL of appropriately adjusted fungal or bacterial cultures were added, and the bacteria were subjected to final concentrations of 250–3.9 μg/mL for pure compounds and 2.5–0.02 mg/mL for crude extracts. Amphotericin-B and Gentamicin (Virbac, Carros, France) served as positive controls for fungi and bacteria, respectively. For sterility, water served as control, while acetone served as a negative control. The microplates were then incubated for 24 h at 37 °C. Following incubation, 40 µL of 0.2 mg/mL p-iodonitrotetrazolium violet (INT, Sigma Aldrich) dissolved in water (hot) was added to the wells before being incubated at 37 °C for another 2 h. In the case of fungi, the INT was added before incubation. The MIC was measured visually as the lowest concentration of the compounds/extracts that inhibited proliferation.

C. albicans = system: C. albicans; parameters: method as in ref 35 = [35]; 35. Naika H.R. Krishna V. Harish B.G. Khadeer Ahamed B.M. Mahadevan K.M. Antimicrobial Activity of Bioactive Constituents Isolated from the Leaves of Naravelia zeylanica (L.) DC Int. J. Res. Pharm. Bi; conditions: cited from earlier work
Salmonella Typhimurium = system: Salmonella Typhimurium; parameters: method as in ref 36 = [36]; 36. Koay Y.C. Wong K.C. Hasnah O. Ibrahim E.M.S. Mohammad Z.A. Chemical constituents and biological activities of Strobilanthes crispus L. Rec. Nat. Prod. 2013 7 59 64; conditions: cited from earlier work
MCF-7 = system: MCF-7; parameters: method as in PMID 35453556, PMID 21294076; conditions: cited from earlier work

## CC1(C)CC[C@]2(C)CC=C3[C@]4(C)CC[C@H]5C(C)(C)[C@@H](O)CC[C@]5(C)[C@H]4CC[C@@]3(C)[C@@H]2C1 [Compound 3β-Taraxerol, 3β-taraxerol]
Escherichia coli
  MIC Escherichia coli: 62.5 µg/mL (≈ 146 µM)
Klebsiella pneumoniae
  MIC Klebsiella pneumoniae: 62.5 µg/mL (≈ 146 µM)
[1]
  Antimicrobial activity against two Gram-positive and three Gram-negative bacteria: moderate antimicrobial activity
Staphylococcus aureus
  MIC Staphylococcus aureus: 15.6 µg/mL (≈ 36.6 µM)
[2]
  MIC: > 250 µg/mL
C. albicans
  Activity against C. albicans: no activity
Salmonella Typhimurium
  MIC Salmonella Typhimurium: 62.5 µg/mL (≈ 146 µM)
MCF-7
  Cytotoxicity MCF-7: inactive

Reference: publication PMC10574767, “Extractives from Artemisia afra with Anti-Bacterial and Anti-Fungal Properties” (Plants, 2023)
